The test system of assay [1] is phosphorylation of threonine 202 (Thr202) and tyrosine 204 (Tyr204) of ERK. Kind of assay: ERK phosphorylation inhibitory effect by Cell ELISA in AsPC-1 (Test Example 2). It is filed as cell-based, human. Particulars: Homo sapiens, ASPC1, AsPC-1 cells, cultured overnight with compound; 1 μM trametinib taken as 0%. The method, boiled down:
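AsPC-1 cells (G12D KRAS) treated overnight with compound (10 points, 10 μM to 0.3 nM final), then glyoxal-fixed and immunostained for phospho-ERK with a fluorescent secondary read at 800 nm. IC50 by Sigmoid-Emax regression, with DMSO as 100% and 1 μM trametinib as 0%.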
In general terms: ELISA stands for enzyme-linked immunosorbent assay.

The target of another assay is T1, KRAS G12D protein (Homo sapiens, UniProt P01116, G12D).
T1 construct: host or cells: AsPC-1
The experiment in a line: KRAS degradation activity by Cell ELISA in AsPC-1 (Test Example 1). The settings on record: AsPC-1 cells, cultured overnight with compound, corrected with β-actin, read-out: DC50 (50% degradation concentration of the amounts of KRAS). The format is cell-based. The method, boiled down: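 AsPC-1 cells (KRAS G12D), 2.0×10^4/well, treated overnight with compound (10 points, 10 μM–0.3 nM final) in RPMI 1640/10% FBS. Fixed cells immunostained for G12D-specific Ras and β-actin, with near-IR fluorescence read. Ras/actin ratio scaled DMSO = 0% and actin-only = 100%, and DC50 fitted by Sigmoid-Emax regression.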

In assay [2] the test system is human G12D mutant KRAS-positive pancreatic cancer line AsPC-1. Kind of assay: Non-anchorage-dependent cell growth inhibition, spheroid 3D cell culture (Test Example 3). It is filed as cell-based. Particulars: Homo sapiens, ASPC1, 144 h, AsPC-1 spheroid 3D culture, 6 days, CellTiter Glo 2.0. The essentials:
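AsPC-1 spheroids, 5×10^2 cells per well on low-adhesion round-bottom plates in RPMI 1640/10% FBS, dosed next day at 10 or 6 points spanning 10 μM to 0.3 nM final for 6 days at 37° C., 5% CO2. Viability by CellTiter Glo 2.0 luminescence; IC50 by Sigmoid-Emax regression, DMSO 100% and cell-free medium 0%.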
On the technique in general: In ATP-based viability assays light output follows the ATP content of the culture.

T1 sequence (P01116 1-188 isoform P01116-2 G12D): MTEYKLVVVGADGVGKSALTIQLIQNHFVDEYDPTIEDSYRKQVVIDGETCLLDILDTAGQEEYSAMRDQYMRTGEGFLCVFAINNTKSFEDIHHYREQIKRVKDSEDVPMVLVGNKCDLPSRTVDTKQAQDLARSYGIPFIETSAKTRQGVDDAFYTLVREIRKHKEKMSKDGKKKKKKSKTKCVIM

Turning to `Cc1ncsc1-c1ccc([C@H](CO)NC(=O)[C@@H]2C[C@@H](O)CN2C(=O)[C@H](C(C)C)n2cc(-c3ccc(COc4c(-c5c(C)c(F)cc6[nH]ncc56)c(C5CC5)cc5c(N(C)[C@H]6CCNC6)nc(OCC(C)(F)F)nc45)cc3)nn2)cc1` (atropisomer, axis not shown) [Example 36], the values for the IC50 in assay [1] and in assay [2] were 21 nM and 19 nM, respectively. The DC50 on KRAS G12D protein stood at 82 nM.

As to `Cc1ncsc1-c1ccc([C@H](CO)NC(=O)[C@@H]2C[C@@H](O)CN2C(=O)[C@H](C(C)C)n2cc(-c3ccc(COc4c(-c5c(C)c(F)cc6[nH]ncc56)c(C5CC5)cc5c(N(C)[C@H]6CCNC6)nc(OCCC(F)(F)F)nc45)cc3)nn2)cc1` (atropisomer, axis not shown) [Example 37], the half-inhibitory concentration (IC50) in assay [1] and in assay [2] was 32 nM each time. The DC50 at KRAS G12D protein came to 58 nM.

As for `Cc1ncsc1-c1ccc([C@H](CO)NC(=O)[C@@H]2C[C@@H](O)CN2C(=O)[C@H](C(C)C)n2cc(-c3ccc(COc4c(-c5c(C)c(F)cc6[nH]ncc56)c(C5CC5)cc5c(N(C)[C@H]6CCNC6)nc(OCCCF)nc45)cc3)nn2)cc1` (atropisomer, axis not shown) [Example 38], the IC50 in assay [1] and in assay [2] was 36 nM each time. At KRAS G12D protein, the DC50 was found to be 25 nM.

As to `COCCCOc1nc(N(C)[C@H]2CCNC2)c2cc(C3CC3)c(-c3c(C)c(F)cc4[nH]ncc34)c(OCc3ccc(-c4cn([C@H](C(=O)N5C[C@H](O)C[C@H]5C(=O)N[C@@H](CO)c5ccc(-c6scnc6C)cc5)C(C)C)nn4)cc3)c2n1` (atropisomer, axis not shown) [Example 39], the IC50 was determined as 57 nM in assay [1] and 39 nM in assay [2]. For the same compound, at KRAS G12D protein, the DC50 was 37 nM.

Take `CO[C@@H](C)COc1nc(N(C)[C@H]2CCNC2)c2cc(C3CC3)c(-c3c(C)c(F)cc4[nH]ncc34)c(OCc3ccc(-c4cn([C@H](C(=O)N5C[C@H](O)C[C@H]5C(=O)N[C@@H](CO)c5ccc(-n6cncn6)cc5)C(C)C)nn4)cc3)c2n1` (atropisomer, axis not shown) [Example 40]: the IC50 in assay [1] was determined as 7 nM; in assay [2] it was 6 nM. The DC50 on KRAS G12D protein turned out to be 47 nM.

For `Cc1c(F)cc2[nH]ncc2c1-c1c(C2CC2)cc2c(N(C)[C@H]3CCNC3)nc(OC[C@H]3CCCO3)nc2c1OCc1ccc(-c2cn([C@H](C(=O)N3C[C@H](O)C[C@H]3C(=O)N[C@@H](CO)c3ccc(-n4cncn4)cc3)C(C)C)nn2)cc1` (atropisomer, axis not shown) [Example 41], the IC50 in assay [1] was 9 nM; in assay [2], 8 nM. For the same compound, the DC50 at KRAS G12D protein turned out to be 29 nM.

As to `CO[C@H](COc1nc(N(C)[C@H]2CCNC2)c2cc(C3CC3)c(-c3c(C)c(F)cc4[nH]ncc34)c(OCc3ccc(-c4cn([C@H](C(=O)N5C[C@H](O)C[C@H]5C(=O)N[C@@H](CO)c5ccc(-c6scnc6C)cc5)C(C)C)nn4)cc3)c2n1)C(F)F` (atropisomer, axis not shown) [Example 43], the results for the IC50 in assay [1] and in assay [2] were 7 nM and 6 nM, respectively. The DC50 at KRAS G12D protein was determined as 41 nM.

For `CO[C@@H](C)COc1nc(N(C)[C@H]2CCNC2)c2cc(C3CC3)c(-c3c(C)c(F)cc4[nH]ncc34)c(OCc3ccc(-c4cn([C@H](C(=O)N5C[C@H](O)C[C@H]5C(=O)N[C@@H](CO)c5ccc(-c6scnc6C)cc5)C(C)C)nn4)nc3)c2n1` (atropisomer, axis not shown) [Example 45], the IC50 in assay [1] worked out at 16 nM; in assay [2], 15 nM. At KRAS G12D protein, the DC50 is 27 nM.

`CO[C@H](CF)COc1nc(N(C)[C@H]2CCNC2)c2cc(C3CC3)c(-c3c(C)c(F)cc4[nH]ncc34)c(OCc3ccc(-c4cn([C@H](C(=O)N5C[C@H](O)C[C@H]5C(=O)N[C@@H](CO)c5ccc(-c6scnc6C)cc5)C(C)C)nn4)cc3)c2n1` (atropisomer, axis not shown) [Example 46]: the figures for the IC50 in assay [1] and in assay [2] were 6 nM and 5 nM, respectively. Moreover, the DC50 at KRAS G12D protein was 25 nM.

As to `CO[C@@H](CF)COc1nc(N(C)[C@H]2CCNC2)c2cc(C3CC3)c(-c3c(C)c(F)cc4[nH]ncc34)c(OCc3ccc(-c4cn([C@H](C(=O)N5C[C@H](O)C[C@H]5C(=O)N[C@@H](CO)c5ccc(-c6scnc6C)cc5)C(C)C)nn4)cc3)c2n1` (atropisomer, axis not shown) [Example 47], the IC50 was 22 nM in assay [1] and 15 nM in assay [2]. The DC50 at KRAS G12D protein stood at 26 nM.

Regarding `Cc1ncsc1-c1ccc([C@H](CO)NC(=O)[C@@H]2C[C@@H](O)CN2C(=O)[C@H](C(C)C)n2cc(-c3ccc(COc4c(-c5c(C)c(F)cc6[nH]ncc56)c(C5CC5)cc5c(N(C)[C@H]6CCNC6)nc(OC[C@@H](C)F)nc45)cc3)nn2)cc1` (atropisomer, axis not shown) [Example 48], the IC50 worked out at 15 nM in assay [1] and 16 nM in assay [2]. In addition, the DC50 on KRAS G12D protein was 38 nM.

In the case of `COCC1(COc2nc(N(C)[C@H]3CCNC3)c3cc(C4CC4)c(-c4c(C)c(F)cc5[nH]ncc45)c(OCc4ccc(-c5cn([C@H](C(=O)N6C[C@H](O)C[C@H]6C(=O)N[C@@H](CO)c6ccc(-c7scnc7C)cc6)C(C)C)nn5)cc4)c3n2)CC1` (atropisomer, axis not shown) [Example 49], the figures for the IC50 in assay [1] and in assay [2] were 32 nM and 10 nM, respectively. Further, the DC50 at KRAS G12D protein was found to be 25 nM.

`CO[C@@H](C)COc1nc(N[C@@H]2CCNC2)c2cc(C3CC3)c(-c3c(C)c(F)cc4[nH]ncc34)c(OCc3ccc(-c4cn([C@H](C(=O)N5C[C@H](O)C[C@H]5C(=O)N[C@@H](CO)c5ccc(-c6scnc6C)cc5)C(C)C)nn4)cc3)c2n1` (atropisomer, axis not shown) [Example 51]: the IC50 was found to be 59 nM in assay [1] and 44 nM in assay [2]. Moreover, the DC50 at KRAS G12D protein came to 14 nM.

Consider `CO[C@@H](C)COc1nc(O[C@@H]2CCNC2)c2cc(C3CC3)c(-c3c(C)c(F)cc4[nH]ncc34)c(OCc3ccc(-c4cn([C@H](C(=O)N5C[C@H](O)C[C@H]5C(=O)N[C@@H](CO)c5ccc(-c6scnc6C)cc5)C(C)C)nn4)cc3)c2n1` (atropisomer, axis not shown) [Example 52], for which the IC50 in assay [1] and in assay [2] was 4 nM in each case. At KRAS G12D protein, the DC50 is 11 nM.

For the compound `CO[C@@H](C)COc1nc(N2CCNCC2)c2cc(C3CC3)c(-c3c(C)c(F)cc4[nH]ncc34)c(OCc3ccc(-c4cn([C@H](C(=O)N5C[C@H](O)C[C@H]5C(=O)N[C@@H](CO)c5ccc(-c6scnc6C)cc5)C(C)C)nn4)cc3)c2n1` (atropisomer, axis not shown) [Example 54], the IC50 in assay [1] is 5 nM; in assay [2], 7 nM. For the same compound, the DC50 at KRAS G12D protein came out at 34 nM.

With `Cc1ncsc1-c1ccc([C@H](CO)NC(=O)[C@@H]2C[C@@H](O)CN2C(=O)[C@H](C(C)C)n2cc(-c3ccc(COc4c(-c5c(C)c(F)cc6[nH]ncc56)c(C5CC5)cc5c(OC6CNC6)nc(OC6CCOCC6)nc45)cc3)nn2)cc1` (atropisomer, axis not shown; (M)) [Example 2, (4R)-1-[(2S)-2-(4-{4-[({(7M)-4-[(azetidin-3-yl)oxy]-6-cyclopropyl-7-(6-fluoro-5-methyl-1H-indazol-4-yl)-2-[(oxan-4-yl)oxy]quinazolin-8-yl}oxy)methyl]phenyl}-1H-1,2,3-triazol-1-yl)-3-methylbutanoyl]-4-hydroxy-N-{(1R)-2-hydroxy-1-[4-(4-methyl-1,3-thiazol-5-yl)phenyl]ethyl}-L-prolinamide], the IC50 is 9 nM in assay [1] and 92 nM in assay [2]. Besides, the DC50 at KRAS G12D protein turned out to be 20 nM.

`Cc1ncsc1-c1ccc([C@H](CO)NC(=O)[C@@H]2C[C@@H](O)CN2C(=O)[C@H](C(C)C)n2cc(-c3ccc(COc4c(-c5c(C)c(F)cc6[nH]ncc56)c(C5CC5)cc5c(N(C)[C@H]6CCNC6)nc(OC[C@@H]6CCCO6)nc45)cc3)nn2)cc1` (atropisomer, axis not shown; (M)) [Example 10, (4R)-1-[(2S)-2-{4-[4-({[(7M) 6-cyclopropyl-7-(6-fluoro-5-methyl-1H-indazol-4-yl)-4-{methyl[(3S)-pyrrolidin-3-yl]amino}-2-{[(2S)-oxolan-2-yl]methoxy}quinazolin-8-yl}oxy}methyl)phenyl]-1H-1,2,3-triazol-1-yl}-3-methylbutanoyl]-4-hydroxy-N-{(1R)-2-hydroxy-1-[4-(4-methyl-1,3-thiazol-5-yl)phenyl]ethyl}-L-prolinamide]: the IC50 came to 8 nM in assay [1] and 6 nM in assay [2]. Further, the DC50 at KRAS G12D protein was determined as 18 nM.

As for `CO[C@@H](C)COc1nc(N(C)[C@H]2CCNC2)c2cc(C3CC3)c(-c3c(C)c(F)cc4[nH]ncc34)c(OCc3ccc(-c4cn([C@H](C(=O)N5C[C@H](O)C[C@H]5C(=O)N[C@@H](CO)c5ccc(-c6scnc6C)cc5)C(C)C)nn4)c(F)c3)c2n1` (atropisomer, axis not shown; (M)) [Example 44], the values for the 50% inhibitory concentration (IC50) in assay [1] and in assay [2] were 31 nM and 17 nM, respectively. The DC50 on KRAS G12D protein amounted to 43 nM.

On to `Cc1ncsc1-c1ccc([C@H](CO)NC(=O)[C@@H]2C[C@@H](O)CN2C(=O)[C@H](C(C)C)n2cc(-c3ccc(COc4c(-c5c(C)c(F)cc6[nH]ncc56)c(C5CC5)cc5c(N[C@H]6CCNC6)cc(OC6CCOCC6)nc45)cc3)nn2)cc1` [Example 4], for which the IC50 in assay [1] came out at 8 nM; in assay [2], 7 nM. For the same compound, the DC50 at KRAS G12D protein was 35 nM.

The IC50 is the concentration that inhibits the measured activity by half.

For the origin of these results see US20250206751A1, “HETEROCYCLIC COMPOUND FOR INDUCING DEGRADATION OF G12D MUTANT KRAS PROTEIN” (Astellas Pharma Inc., priority 2022, published 2025).
